According to patent US20240024488A1, “COMPOUNDS AND USES THEREOF” (Foghorn Therapeutics Inc., priority 2020, published 2024):

Experiments:
[1] = target: T1, HiBit-BRG1 fusion protein (Homo sapiens, UniProt P51532); experiment: HiBiT-BRG1 cell-based degradation assay (Nano-Glo HiBiT Lytic Detection, 24 h); details: HeLa cell line expressing HiBit-BRG1 and LgBit, read-out: BRG1 HiBit Degradation Maximum (%)
T1 construct: expressed in transfected cells
Procedure, shortened: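 HeLa cells stably expressing HiBiT-BRG1 plus LgBit, 5000/well, treated 24 h, then lysed with Nano-Glo HiBiT lytic reagent and luminescence read. % degradation normalised between DMSO (high control) and 2 μM reference BRM/BRG1 degrader (low control).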

HiBit-BRM fusion protein = target: T2, HiBit-BRM fusion protein (Homo sapiens, UniProt P51531); experiment: HiBiT-BRM cell-based degradation assay (Nano-Glo HiBiT Lytic Detection, 24 h); details: HeLa cell line expressing HiBiT-BRM
T2 construct: expressed in transfected cells
T2 sequence (P51531 whole entry, the tested form may be a part): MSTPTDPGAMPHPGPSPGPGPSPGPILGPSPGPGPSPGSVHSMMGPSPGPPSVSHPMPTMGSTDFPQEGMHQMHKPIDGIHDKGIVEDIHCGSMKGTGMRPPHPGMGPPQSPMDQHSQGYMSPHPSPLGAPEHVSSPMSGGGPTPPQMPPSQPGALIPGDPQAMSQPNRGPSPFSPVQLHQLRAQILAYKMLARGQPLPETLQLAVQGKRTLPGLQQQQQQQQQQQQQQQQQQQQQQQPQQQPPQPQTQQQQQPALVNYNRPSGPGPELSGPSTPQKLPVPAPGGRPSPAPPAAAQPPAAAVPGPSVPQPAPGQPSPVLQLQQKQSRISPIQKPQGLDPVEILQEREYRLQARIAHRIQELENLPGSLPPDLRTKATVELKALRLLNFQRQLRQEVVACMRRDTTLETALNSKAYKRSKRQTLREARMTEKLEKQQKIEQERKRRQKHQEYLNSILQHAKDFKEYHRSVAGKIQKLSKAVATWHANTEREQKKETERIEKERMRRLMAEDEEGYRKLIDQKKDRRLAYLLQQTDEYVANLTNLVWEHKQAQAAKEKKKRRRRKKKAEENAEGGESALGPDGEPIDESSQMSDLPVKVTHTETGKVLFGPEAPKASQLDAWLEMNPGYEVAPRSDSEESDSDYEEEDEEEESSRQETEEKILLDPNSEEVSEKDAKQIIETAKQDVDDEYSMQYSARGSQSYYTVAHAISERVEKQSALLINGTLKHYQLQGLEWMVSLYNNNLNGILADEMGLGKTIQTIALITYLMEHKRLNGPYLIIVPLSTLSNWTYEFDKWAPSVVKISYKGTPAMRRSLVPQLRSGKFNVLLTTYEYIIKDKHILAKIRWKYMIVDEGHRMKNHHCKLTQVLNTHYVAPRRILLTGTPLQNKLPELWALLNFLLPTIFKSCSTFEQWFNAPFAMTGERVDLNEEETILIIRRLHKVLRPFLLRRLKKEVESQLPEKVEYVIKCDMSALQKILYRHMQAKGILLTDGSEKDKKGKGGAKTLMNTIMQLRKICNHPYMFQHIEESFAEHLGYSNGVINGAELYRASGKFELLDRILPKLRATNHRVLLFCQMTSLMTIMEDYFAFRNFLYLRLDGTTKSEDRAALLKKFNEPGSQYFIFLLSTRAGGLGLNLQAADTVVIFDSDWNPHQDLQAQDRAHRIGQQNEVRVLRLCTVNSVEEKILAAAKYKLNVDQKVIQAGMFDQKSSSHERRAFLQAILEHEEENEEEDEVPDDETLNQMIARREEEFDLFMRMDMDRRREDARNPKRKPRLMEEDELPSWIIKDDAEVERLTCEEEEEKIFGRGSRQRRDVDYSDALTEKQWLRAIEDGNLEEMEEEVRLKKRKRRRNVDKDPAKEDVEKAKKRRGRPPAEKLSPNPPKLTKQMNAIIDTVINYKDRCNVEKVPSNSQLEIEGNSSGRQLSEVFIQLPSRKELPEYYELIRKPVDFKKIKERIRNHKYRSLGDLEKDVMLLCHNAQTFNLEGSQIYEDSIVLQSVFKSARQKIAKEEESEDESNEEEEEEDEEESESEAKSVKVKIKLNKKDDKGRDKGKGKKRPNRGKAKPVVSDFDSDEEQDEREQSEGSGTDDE
Procedure, shortened: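 HeLa cells stably expressing HiBiT-BRM were dosed with compounds (10-point 3-fold dilutions, 30 μM final top dose, duplicate) for 24 h. HiBiT signal was read by lytic LgBiT complementation luminescence. Percent degradation was normalised to DMSO (high control) and 2 μM of a reference BRM/BRG1 degrader (low control).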

T1 sequence (P51532 whole entry, the tested form may be a part): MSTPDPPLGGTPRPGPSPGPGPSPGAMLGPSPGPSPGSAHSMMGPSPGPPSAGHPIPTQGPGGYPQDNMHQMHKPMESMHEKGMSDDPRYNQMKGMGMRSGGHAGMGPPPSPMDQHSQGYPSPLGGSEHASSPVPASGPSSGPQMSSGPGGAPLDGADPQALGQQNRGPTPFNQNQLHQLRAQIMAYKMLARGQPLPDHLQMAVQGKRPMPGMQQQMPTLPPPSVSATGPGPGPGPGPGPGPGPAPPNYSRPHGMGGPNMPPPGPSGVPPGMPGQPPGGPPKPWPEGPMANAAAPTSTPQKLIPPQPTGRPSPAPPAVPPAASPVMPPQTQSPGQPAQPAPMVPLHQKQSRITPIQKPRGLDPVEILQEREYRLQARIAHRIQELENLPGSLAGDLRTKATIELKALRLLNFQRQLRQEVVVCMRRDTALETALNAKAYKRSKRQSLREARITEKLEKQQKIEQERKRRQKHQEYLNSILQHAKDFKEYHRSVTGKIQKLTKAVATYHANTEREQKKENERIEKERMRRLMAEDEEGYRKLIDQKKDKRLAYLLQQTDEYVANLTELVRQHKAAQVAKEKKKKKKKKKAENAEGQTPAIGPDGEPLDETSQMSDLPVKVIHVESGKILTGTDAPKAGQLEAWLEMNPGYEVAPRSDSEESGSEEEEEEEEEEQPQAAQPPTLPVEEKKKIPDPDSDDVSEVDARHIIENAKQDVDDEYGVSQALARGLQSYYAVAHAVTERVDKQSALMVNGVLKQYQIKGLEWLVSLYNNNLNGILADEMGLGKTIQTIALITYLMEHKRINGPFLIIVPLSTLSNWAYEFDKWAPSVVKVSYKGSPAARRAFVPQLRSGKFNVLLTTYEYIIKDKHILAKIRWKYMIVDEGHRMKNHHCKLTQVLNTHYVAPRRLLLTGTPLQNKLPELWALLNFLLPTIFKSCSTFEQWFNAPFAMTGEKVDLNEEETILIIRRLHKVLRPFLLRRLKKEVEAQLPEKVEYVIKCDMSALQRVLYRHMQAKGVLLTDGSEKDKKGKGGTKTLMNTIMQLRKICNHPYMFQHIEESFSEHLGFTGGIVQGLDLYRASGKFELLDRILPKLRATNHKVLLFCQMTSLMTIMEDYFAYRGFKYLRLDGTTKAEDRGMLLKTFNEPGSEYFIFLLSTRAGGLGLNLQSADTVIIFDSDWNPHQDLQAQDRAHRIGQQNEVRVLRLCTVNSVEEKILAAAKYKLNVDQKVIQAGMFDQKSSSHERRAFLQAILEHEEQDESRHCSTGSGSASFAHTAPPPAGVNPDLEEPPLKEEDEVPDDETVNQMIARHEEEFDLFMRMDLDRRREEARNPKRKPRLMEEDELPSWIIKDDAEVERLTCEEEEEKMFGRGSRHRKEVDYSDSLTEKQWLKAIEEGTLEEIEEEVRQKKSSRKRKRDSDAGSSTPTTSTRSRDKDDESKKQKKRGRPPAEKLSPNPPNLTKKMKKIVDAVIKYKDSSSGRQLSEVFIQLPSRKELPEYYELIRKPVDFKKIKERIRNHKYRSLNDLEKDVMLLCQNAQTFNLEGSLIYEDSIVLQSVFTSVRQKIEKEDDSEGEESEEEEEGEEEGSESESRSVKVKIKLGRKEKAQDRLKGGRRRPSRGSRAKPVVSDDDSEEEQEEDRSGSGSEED

Row | Structure (SMILES) | Dmax [1] [%] | BRM HiBit Degradation Maximum (%) (HiBit-BRM fusion protein)
1 | Cc1ncsc1-c1ccc(CNC(=O)[C@@H]2C[C@@H](O)CN2C(=O)[C@@H](NC(=O)CCCCCCCCCCCCC(=O)N2CC(c3cc4cc(-c5ccccc5O)nnc4[nH]3)C2)C(C)(C)C)cc1 [Compound 17, (2S,4R)-4-hydroxy-1-((S)-2-(14-(3-(3-(2-hydroxyphenyl)-7H-pyrrolo[2,3-c]pyridazin-6-yl)azetidin-1-yl)-14-oxotetradecanamido)-3,3-dimethylbutanoyl)-N-(4-(4-methylthiazol-5-yl)benzyl)pyrrolidine-2-carboxamide] | < 50 | C (“C” indicates maximum degradation < 50%)
2 | Cc1ncsc1-c1ccc(CNC(=O)[C@@H]2C[C@@H](O)CN2C(=O)[C@@H](NC(=O)CCCCC(=O)N2CC(c3cc4cc(-c5ccccc5O)nnc4[nH]3)C2)C(C)(C)C)cc1 [Compound 18, (2S,4R)-4-hydroxy-1-((S)-2-(6-(3-(3-(2-hydroxyphenyl)-7H-pyrrolo[2,3-c]pyridazin-6-yl)azetidin-1-yl)-6-oxohexanamido)-3,3-dimethylbutanoyl)-N-(4-(4-methylthiazol-5-yl)benzyl)pyrrolidine-2-carboxamide] | < 50 | C (“C” indicates maximum degradation < 50%)
3 | Cc1ncsc1-c1ccc(CNC(=O)[C@@H]2C[C@@H](O)CN2C(=O)[C@@H](NC(=O)CCCCCCCCCCCCCCCCC(=O)N2CC(c3cc4cc(-c5ccccc5O)nnc4[nH]3)C2)C(C)(C)C)cc1 [Compound 19, (2S,4R)-4-hydroxy-1-((S)-2-(18-(3-(3-(2-hydroxyphenyl)-7H-pyrrolo[2,3-c]pyridazin-6-yl)azetidin-1-yl)-18-oxooctadecanamido)-3,3-dimethylbutanoyl)-N-(4-(4-methylthiazol-5-yl)benzyl)pyrrolidine-2-carboxamide] | < 50 | C (“C” indicates maximum degradation < 50%)
4 | Cc1ncsc1-c1ccc(CNC(=O)[C@@H]2C[C@@H](O)CN2C(=O)[C@@H](NC(=O)CCCCCCCCCCCCCC(=O)N2CC(c3cc4cc(-c5ccccc5O)nnc4[nH]3)C2)C(C)(C)C)cc1 [Compound 20, (2S,4R)-4-hydroxy-1-((S)-2-(15-(3-(3-(2-hydroxyphenyl)-7H-pyrrolo[2,3-c]pyridazin-6-yl)azetidin-1-yl)-15-oxopentadecanamido)-3,3-dimethylbutanoyl)-N-(4-(4-methylthiazol-5-yl)benzyl)pyrrolidine-2-carboxamide] | < 50 | C (“C” indicates maximum degradation < 50%)
5 | Cc1ncsc1-c1ccc(CNC(=O)[C@@H]2C[C@@H](O)CN2C(=O)[C@@H](NC(=O)CCCCCCCCCCCCCCC(=O)N2CC(c3cc4cc(-c5ccccc5O)nnc4[nH]3)C2)C(C)(C)C)cc1 [Compound 21, (2S,4R)-4-hydroxy-1-((S)-2-(16-(3-(3-(2-hydroxyphenyl)-7H-pyrrolo[2,3-c]pyridazin-6-yl)azetidin-1-yl)-16-oxohexadecanamido)-3,3-dimethylbutanoyl)-N-(4-(4-methylthiazol-5-yl)benzyl)pyrrolidine-2-carboxamide] | < 50 | C (“C” indicates maximum degradation < 50%)
6 | Cc1ncsc1-c1ccc(CNC(=O)[C@@H]2C[C@@H](O)CN2C(=O)[C@@H](NC(=O)CCCCCCCCCCCCCCCC(=O)N2CC(c3cc4cc(-c5ccccc5O)nnc4[nH]3)C2)C(C)(C)C)cc1 [Compound 22, (2S,4R)-4-hydroxy-1-((S)-2-(17-(3-(3-(2-hydroxyphenyl)-7H-pyrrolo[2,3-c]pyridazin-6-yl)azetidin-1-yl)-17-oxoheptadecanamido)-3,3-dimethylbutanoyl)-N-(4-(4-methylthiazol-5-yl)benzyl)pyrrolidine-2-carboxamide] | < 50 | C (“C” indicates maximum degradation < 50%)
7 | O=C1CCC(N2C(=O)c3cccc(OCCOCCOCCC(=O)N4CC(c5cc6cc(-c7ccccc7O)nnc6[nH]5)C4)c3C2=O)C(=O)N1 (stereo not drawn) [Compound 23, 2-(2,6-dioxopiperidin-3-yl)-4-(2-(2-(3-(3-(3-(2-hydroxyphenyl)-7H-pyrrolo[2,3-c]pyridazin-6-yl)azetidin-1-yl)-3-oxopropoxy)ethoxy)ethoxy)isoindoline-1,3-dione] | < 50 | C (“C” indicates maximum degradation < 50%)
8 | O=C1CCC(N2C(=O)c3ccc(OCCOCCOCCC(=O)N4CC(c5cc6cc(-c7ccccc7O)nnc6[nH]5)C4)cc3C2=O)C(=O)N1 (stereo not drawn) [Compound 24, 2-(2,6-dioxopiperidin-3-yl)-5-(2-(2-(3-(3-(3-(2-hydroxyphenyl)-7H-pyrrolo[2,3-c]pyridazin-6-yl)azetidin-1-yl)-3-oxopropoxy)ethoxy)ethoxy)isoindoline-1,3-dione] | < 50 | C (“C” indicates maximum degradation < 50%)
9 | O=C1CCC(N2C(=O)c3ccc(OCCN4CCC(C(=O)N5CC(c6cc7cc(-c8ccccc8O)nnc7[nH]6)C5)CC4)cc3C2=O)C(=O)N1 (stereo not drawn) [Compound 25, 2-(2,6-dioxopiperidin-3-yl)-5-(2-(4-(3-(3-(2-hydroxyphenyl)-7H-pyrrolo[2,3-c]pyridazin-6-yl)azetidine-1-carbonyl)piperidin-1-yl)ethoxy)isoindoline-1,3-dione] | < 50 | C (“C” indicates maximum degradation < 50%)
10 | O=C1CCC(N2C(=O)c3ccc(N4CCN(CCC(=O)N5CC(c6cc7cc(-c8ccccc8O)nnc7[nH]6)C5)CC4)cc3C2=O)C(=O)N1 (stereo not drawn) [Compound 26, 2-(2,6-dioxopiperidin-3-yl)-5-(4-(3-(3-(3-(2-hydroxyphenyl)-7H-pyrrolo[2,3-c]pyridazin-6-yl)azetidin-1-yl)-3-oxopropyl)piperazin-1-yl)isoindoline-1,3-dione] | < 50 | C (“C” indicates maximum degradation < 50%)
11 | O=C1CCC(N2C(=O)c3cccc(NCCOCCOCCC(=O)N4CC(c5cc6cc(-c7ccccc7O)nnc6[nH]5)C4)c3C2=O)C(=O)N1 (stereo not drawn) [Compound 27, 2-(2,6-dioxopiperidin-3-yl)-4-((2-(2-(3-(3-(3-(2-hydroxyphenyl)-7H-pyrrolo[2,3-c]pyridazin-6-yl)azetidin-1-yl)-3-oxopropoxy)ethoxy)ethyl)amino)isoindoline-1,3-dione] | < 50 | C (“C” indicates maximum degradation < 50%)
12 | O=C1CCC(N2C(=O)c3cccc(NCCCCCCCCCCC(=O)N4CC(c5cc6cc(-c7ccccc7O)nnc6[nH]5)C4)c3C2=O)C(=O)N1 (stereo not drawn) [Compound 28, 2-(2,6-dioxopiperidin-3-yl)-4-((11-(3-(3-(2-hydroxyphenyl)-7H-pyrrolo[2,3-c]pyridazin-6-yl)azetidin-1-yl)-11-oxoundecyl)amino)isoindoline-1,3-dione] | < 50 | C (“C” indicates maximum degradation < 50%)
13 | O=C1CCC(N2C(=O)c3ccc(NCCOCCOCCC(=O)N4CC(c5cc6cc(-c7ccccc7O)nnc6[nH]5)C4)cc3C2=O)C(=O)N1 (stereo not drawn) [Compound 29, 2-(2,6-dioxopiperidin-3-yl)-5-((2-(2-(3-(3-(3-(2-hydroxyphenyl)-7H-pyrrolo[2,3-c]pyridazin-6-yl)azetidin-1-yl)-3-oxopropoxy)ethoxy)ethyl)amino)isoindoline-1,3-dione] | < 50 | C (“C” indicates maximum degradation < 50%)
14 | O=C1CCC(N2C(=O)c3cccc(OCCCCCCCC(=O)N4CC(c5cc6cc(-c7ccccc7O)nnc6[nH]5)C4)c3C2=O)C(=O)N1 (stereo not drawn) [Compound 30, 2-(2,6-dioxopiperidin-3-yl)-4-((8-(3-(3-(2-hydroxyphenyl)-7H-pyrrolo[2,3-c]pyridazin-6-yl)azetidin-1-yl)-8-oxooctyl)oxy)isoindoline-1,3-dione] | < 50 | C (“C” indicates maximum degradation < 50%)
15 | O=C1CCC(N2C(=O)c3cccc(OCCCCCCC(=O)N4CC(c5cc6cc(-c7ccccc7O)nnc6[nH]5)C4)c3C2=O)C(=O)N1 (stereo not drawn) [Compound 31, 2-(2,6-dioxopiperidin-3-yl)-4-((7-(3-(3-(2-hydroxyphenyl)-7H-pyrrolo[2,3-c]pyridazin-6-yl)azetidin-1-yl)-7-oxoheptyl)oxy)isoindoline-1,3-dione] | < 50 | C (“C” indicates maximum degradation < 50%)
16 | O=C1CCC(N2C(=O)c3ccc(NCCCCCCCCCCC(=O)N4CC(c5cc6cc(-c7ccccc7O)nnc6[nH]5)C4)cc3C2=O)C(=O)N1 (stereo not drawn) [Compound 32, 2-(2,6-dioxopiperidin-3-yl)-5-((11-(3-(3-(2-hydroxyphenyl)-7H-pyrrolo[2,3-c]pyridazin-6-yl)azetidin-1-yl)-11-oxoundecyl)amino)isoindoline-1,3-dione] | < 50 | C (“C” indicates maximum degradation < 50%)
17 | O=C1CCC(N2C(=O)c3cccc(NCCCCCCCCC(=O)N4CC(c5cc6cc(-c7ccccc7O)nnc6[nH]5)C4)c3C2=O)C(=O)N1 (stereo not drawn) [Compound 33, 2-(2,6-dioxopiperidin-3-yl)-4-((9-(3-(3-(2-hydroxyphenyl)-7H-pyrrolo[2,3-c]pyridazin-6-yl)azetidin-1-yl)-9-oxononyl)amino)isoindoline-1,3-dione] | < 50 | C (“C” indicates maximum degradation < 50%)
18 | O=C1CCC(N2C(=O)c3ccc(N4CC5(CN(CCC(=O)N6CC(c7cc8cc(-c9ccccc9O)nnc8[nH]7)C6)C5)C4)cc3C2=O)C(=O)N1 (stereo not drawn) [Compound 34, 2-(2,6-dioxopiperidin-3-yl)-5-(6-(3-(3-(3-(2-hydroxyphenyl)-7H-pyrrolo[2,3-c]pyridazin-6-yl)azetidin-1-yl)-3-oxopropyl)-2,6-diazaspiro[3.3]heptan-2-yl)isoindoline-1,3-dione] | < 50 | C (“C” indicates maximum degradation < 50%)
